According to publication PMC6265983, “Identification and Molecular Docking Study of a Novel Angiotensin-I Converting Enzyme Inhibitory Peptide Derived from Enzymatic Hydrolysates of Cyclina sinensis” (Marine Drugs, 2018):
Like-named read-outs stand apart in the source and are kept apart here. Ends that are not written are not given here.

What was measured:
ACE = conditions: cited from earlier work; for IC50: read-out: IC50, ACE inhibition
Description: Marine species account for about half of the world’s total biodiversity. This diversity, together with the availability of marine resources, have driven the search for new antihypertensive agents, which could be administered as functional foods or dietary supplements. Since the first discovery of a marine-derived peptide with ACE-inhibitory activity, researchers have identified a variety of antihypertensive peptides in hydrolysates from marine species, such as Synodus macrops

ACE (from rabbit lung) [1] = biological target: T1, ACE (from rabbit lung) (Oryctolagus cuniculus, UniProt P12822); experiment: Stability of ACE inhibitory activity in simulated gastric and intestinal fluid; type: in vitro ADME; conditions: read-out: ACE inhibitory activity of the control (undigested peptide)
T1 construct: ACE (from rabbit lung); purchased Sigma Chemicals Co. (St. Louis, MO, USA); host or cells: rabbit lung tissue
T1 sequence (P12822 34-1310): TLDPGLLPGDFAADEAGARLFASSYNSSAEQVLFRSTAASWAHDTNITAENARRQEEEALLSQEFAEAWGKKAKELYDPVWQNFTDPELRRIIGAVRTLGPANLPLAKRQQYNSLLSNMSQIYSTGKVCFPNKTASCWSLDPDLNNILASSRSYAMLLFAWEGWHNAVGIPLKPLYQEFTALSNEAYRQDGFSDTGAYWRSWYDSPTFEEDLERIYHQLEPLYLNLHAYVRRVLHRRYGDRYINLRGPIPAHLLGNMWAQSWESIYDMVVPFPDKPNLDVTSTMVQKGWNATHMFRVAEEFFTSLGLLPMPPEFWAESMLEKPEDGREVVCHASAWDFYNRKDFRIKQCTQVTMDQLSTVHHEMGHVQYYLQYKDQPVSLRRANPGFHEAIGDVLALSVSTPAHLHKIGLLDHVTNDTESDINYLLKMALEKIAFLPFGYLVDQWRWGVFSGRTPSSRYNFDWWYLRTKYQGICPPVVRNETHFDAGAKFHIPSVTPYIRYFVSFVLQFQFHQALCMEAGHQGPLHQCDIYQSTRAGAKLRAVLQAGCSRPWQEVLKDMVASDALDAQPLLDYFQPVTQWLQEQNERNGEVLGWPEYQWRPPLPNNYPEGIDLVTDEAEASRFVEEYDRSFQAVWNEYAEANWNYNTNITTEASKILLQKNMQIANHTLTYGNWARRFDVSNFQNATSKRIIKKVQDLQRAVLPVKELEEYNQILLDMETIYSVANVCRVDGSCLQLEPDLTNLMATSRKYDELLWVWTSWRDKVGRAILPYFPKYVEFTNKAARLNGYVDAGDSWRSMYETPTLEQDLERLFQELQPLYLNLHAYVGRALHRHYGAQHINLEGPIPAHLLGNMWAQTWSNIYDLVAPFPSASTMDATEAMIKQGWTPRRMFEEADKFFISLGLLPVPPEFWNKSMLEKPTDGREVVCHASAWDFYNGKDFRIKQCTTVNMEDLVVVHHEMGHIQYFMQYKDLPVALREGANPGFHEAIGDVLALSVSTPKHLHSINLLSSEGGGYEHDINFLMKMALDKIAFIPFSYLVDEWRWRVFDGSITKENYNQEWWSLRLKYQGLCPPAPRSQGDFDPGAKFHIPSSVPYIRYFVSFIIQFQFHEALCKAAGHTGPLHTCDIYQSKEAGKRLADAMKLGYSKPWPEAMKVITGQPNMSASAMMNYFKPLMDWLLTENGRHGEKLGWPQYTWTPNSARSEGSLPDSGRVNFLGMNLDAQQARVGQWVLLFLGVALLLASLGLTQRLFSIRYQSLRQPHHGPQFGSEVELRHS
Description: Simulated gastric fluid (SGF[sp]): Concentrated hydrochloric acid (37%) was diluted to a 9.5% to 10.5% solution. Then, 800 mL of water and 10 g of pepsin were added to 16.4 mL of this diluted hydrochloric acid solution, mixed well, and the volume completed to 1000 mL with water.
Simulated intestinal fluid (SIF[sp]): 6.8 g of KH2PO4 was dissolved in 500 mL of water, and the pH was adjusted to 6.8 with 0.1 M NaOH. Then ten grams of trypsin were dissolved in an appropriate amount of water, added to the solution described above, and diluted to 1000 mL with water.
The in vitro stability of the ACE inhibitory peptide in the simulated gastrointestinal environments was determined according to the method described by Yu et al [68]. […] (0.5 mg/mL) and incubated for 2 h at 37.5 °C. In addition, the peptide solution was first incubated with SGF[sp] at 37.5 °C for 2 h, the solvent was removed by means of a centrifugal filter concentrator, and was then incubated with SIF[sp] for 2 h. The reaction mixtures were then boiled to inactivate the enzyme. After cooling to room temperature, samples were centrifuged at −4 °C (10000 rpm, 15 min) and the supernatant was adjusted to pH = 7 for the determination of the ACE inhibitory activity.

ACE (from rabbit lung) [2] = biological target: T1, ACE (from rabbit lung); experiment: ACE inhibitory activity (HHL substrate, HPLC of hippuric acid); type: biochemical; conditions: synthetic peptide, 37.5 °C 1 h, HPLC 228 nm, read-out: IC50 value, ACE inhibition
Description: Trypsin (from bovine pancreas, 200 U/mg) and pepsin (from porcine gastric mucosa, 300 U/mg) were purchased from YTHX Biotechnology Co., Ltd. (Beijing, China). ACE (from rabbit lung), and the ACE synthetic substrate hippuryl-L-histidyl-L-leucine (HHL) were purchased from Sigma Chemicals Co. (St. Louis, MO, USA). Other chemicals and reagents used were of analytical grade, except acetonitrile and trifluoroacetic acid (TFA), which were HPLC grade (Sinopharm Chemical Reagent Co., Ltd, Shanghai, China).
To determine the ACE inhibitory activity, we used the method described by D.W.Cushman and Lisete Paiva, with slight modifications. Briefly, 120 μL of 5 mM HHL solution and 20 μL of 1 mg/mL sample solution were mixed thoroughly and pre-incubated for 5 min at 37.5 °C. The control was prepared by replacing the sample solution with 20 μL of 300 mM NaCl in 100 mM borate buffer (pH 8.3). Then, 10 μL of ACE (0.1 U/mL) solution was added, tubes were mixed well, and incubated at 37.5 °C for 1 h in a water bath. […] The reaction solutions were then filtered through a 0.45 μm microporous membrane and quantified by using a ZORBAX SB-C18 analytical column (4.6 mm × 250 mm, 5 μm, 25 °C) and an Agilent HPLC ChemStation, consisting of a G1311C quaternary pump VL, a G1329B standard autosampler, a G1316A column oven, and a G1314F variable wavelength detector. […] Hippuric acid (HA) was detected at 228 nm. […]

[3] = from scorpion (Hemiscorpius lepturus) venom

## AFPYYGHHLG
ACE; [3]
  ACE inhibition mode: competitive

## AGPPGSDGQPGAK [antihypertensive peptide from Synodus macrops hydrolysate]
ACE; peptide from Synodus macrops
  IC50: 420 µM

## Arg-Tyr-Leu [RYL]
ACE; from Silkworm Pupa
  ACE inhibition mode: competitive

## IGPR [antihypertensive peptide from Salmo salar]
ACE; peptides from Salmo salar
  IC50: 430 µM

## SSSKAKKMP [antihypertensive peptide from shrimps]
ACE; peptide from shrimps
  IC50: 880 µM

## Tyr-Gln-Lys [YQK]
ACE; from bovine casein
  ACE inhibition mode: competitive

## VVSLSIPR
ACE; from pigeon pea (Cajanus cajan)
  ACE inhibition mode: competitive

## WPMGF [WPMGF, Trp-Pro-Met-Gly-Phe]
ACE (from rabbit lung) [1]
  inhibition at 500 µg/mL: 51.5 ± 0.72%
ACE (from rabbit lung) [2]
  IC50: 789 µM

## YLYELAR [YLYELAR]
ACE; [3]
  ACE inhibition mode: competitive
